Source: patent EP4032896A1, “THIAZOLOPYRIMIDONES AS INHIBITORS OF DDR1/2 AND THERAPEUTIC USES THEREOF” (Fundación del Sector Público Estatal Centro Nacional de …, priority 2021, dated 2022)

Tests used:
[1] = target: T1, DDR1 (Mus musculus, UniProt Q03146); assay: Cellular assay: inhibition of Collagen I-induced DDR1 autophosphorylation in HEK293T cells transiently transfected with DDR1 plasmid (Western blot); assay type: cell-based, human; settings: pcDNA3.1 DDR1 WT mouse plasmid, compound 1 h, then 10 µg/mL Collagen I 1 h, P-DDR1 (Y513), read-out: pDDR1 EC50
T1 construct: expressed in transfected cells; host or cells: HEK293T
T1 sequence (Q03146 20-911): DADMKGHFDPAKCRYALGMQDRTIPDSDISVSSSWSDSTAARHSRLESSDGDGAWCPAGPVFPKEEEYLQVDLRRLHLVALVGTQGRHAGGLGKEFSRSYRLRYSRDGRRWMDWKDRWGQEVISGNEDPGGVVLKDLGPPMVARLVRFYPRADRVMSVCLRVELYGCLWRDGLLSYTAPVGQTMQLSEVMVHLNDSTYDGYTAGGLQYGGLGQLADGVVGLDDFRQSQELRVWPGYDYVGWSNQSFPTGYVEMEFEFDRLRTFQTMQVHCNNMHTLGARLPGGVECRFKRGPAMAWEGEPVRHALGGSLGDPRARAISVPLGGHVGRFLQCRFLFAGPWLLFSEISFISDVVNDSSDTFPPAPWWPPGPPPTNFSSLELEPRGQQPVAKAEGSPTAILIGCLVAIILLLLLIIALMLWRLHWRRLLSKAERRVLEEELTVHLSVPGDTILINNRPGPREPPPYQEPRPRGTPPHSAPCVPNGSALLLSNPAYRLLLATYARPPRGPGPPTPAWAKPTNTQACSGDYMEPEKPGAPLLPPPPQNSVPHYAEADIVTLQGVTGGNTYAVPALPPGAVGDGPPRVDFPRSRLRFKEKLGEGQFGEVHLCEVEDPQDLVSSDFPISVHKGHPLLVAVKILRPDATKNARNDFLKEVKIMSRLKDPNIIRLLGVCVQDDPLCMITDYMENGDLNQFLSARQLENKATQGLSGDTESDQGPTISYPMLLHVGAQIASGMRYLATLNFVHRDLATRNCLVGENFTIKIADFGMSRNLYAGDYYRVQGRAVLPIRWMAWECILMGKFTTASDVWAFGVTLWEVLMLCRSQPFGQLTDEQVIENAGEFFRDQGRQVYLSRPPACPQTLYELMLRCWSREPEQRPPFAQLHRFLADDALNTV
Method: DDR1/2 cellular assay: Transient transfection of HEK293T cells with DDR1 plasmid is used to study the inhibition of the autophosphorylation of DDR1 induced by Collagen I in cells. HEK293T are seeded, 6x10^5 cells per well in 6-well plates and incubated for 6 h at 37 °C, 5% CO2. Then, cells are transfected using Effectene reactive (Quiagen) with pcDNA3.1 DDR1 WT mouse plasmid. Cells are incubated with transfection complexes under normal growth conditions for 24 h. After that, medium is replaced with fresh medium and cells are incubated for an additional 18 h. Eight serial 1:3 compound dilutions are made in DMSO. The compounds are added to each well of 6 well cell plates and are incubated at 37 °C under CO2 atmosphere 1 h. DDR1's autophosphorylation is stimulated by 1h treatment with 10 µg/mL Collagen I. Then, cells are washed in PBS, lyse adding 100 µl of complete RIPA protein lysis buffer (RIPA Buffer, 1 mM DTT, 5 mM Bezamidine, 10 µg/mL Aprotinin, 10 µg/mL Leupeptin, 710 ng/mL Pepstatin A, 100 µg/mL Trypsin Inhibitor, 40 µg/mL Bestatin, completed with PhosSTOP EASYpack and complete Mini, EDTA-free) and incubated 20 minutes at 4 °C and then centrifugated. Lysates are kept at -80 °C. The protein content of the lysates is determined by DC protein assay (Biorad, Ref. 5000116). The proteins are resolved by SDS-PAGE and transferred to nitrocellulose membrane (GE Healthcare #10600003). The membranes are incubated overnight at 4 °C with antibodies specific for DDR1 (D1G6) (Cell signaling #5583), P-DDR1 (Y513) (E1N8F) (Cell Signaling # 14531) they are washed and then incubated with Alexa Fluor 680 goat anti-rabbit IgG secondary antibodies (Invitrogen, A21076). The bands are visualized and quantified using an Odyssey infrared imaging system (Li-Cor Biosciences). The percentage of DDR1 phosphorylation is finally plotted against concentration for each compound and EC50s for intracellular DDR1 inhibition are calculated using ActivityBase from IDBS.

[2] = target: T2, DDR1 (Homo sapiens, UniProt Q08345); assay: LanthaScreen Eu-Kinase Binding Assay (TR-FRET tracer displacement), DDR1; settings: catalytic domain GST Tag DDR1; Kinase Tracer 178
T2 construct: The enzymes were purchased as a catalytic domain GST Tag DDR1(#PR6913A); purchased ThermoFisher PR6913A
Description: (§1) DDR1/2 binding assay: The binding assay relies on the LanthaScreen ™ Eu-Kinase Binding Assay (ThermoFisher Scientfic). This is a kinase assay platform based on measuring the binding and displacement of an Alexa Fluor® conjugate of an ATP-competitive kinase inhibitor or tracer at a kinase active site (Kinase Tracer 178. #PV5593). Binding of the tracer to the kinase is detected by addition of a europium (Eu)-labeled anti-GST antibody (#PV 5594) which specifically labels the kinase of interest. This binding results in a high degree of fluorescence resonance energy transfer (FRET), whereas displacement of the tracer with a kinase inhibitor results in a loss of FRET. The enzymes were purchased as a catalytic domain GST Tag DDR1(#PR6913A) and DDR2 (#PR7167A) from ThermoFisher. Assay conditions were as indicated by the kit manufacturers. Assays were performed in 384-well plates. The final read out was generated using an EnVision plate reader (Perkin-Elmer). The emission ratio was calculated by dividing the acceptor/tracer emission (665 nm) by the antibody/donor emission (615 nm). Values were plotted against the inhibitor concentration and fit to a sigmoid dose-response curve using Activity base by IDBS software.

[3] = target: T3, DDR2 (Homo sapiens, UniProt Q16832); assay: LanthaScreen Eu-Kinase Binding Assay (TR-FRET tracer displacement), DDR2; settings: catalytic domain GST Tag DDR2; Kinase Tracer 178
T3 construct: The enzymes were purchased as a catalytic domain GST Tag DDR1(#PR6913A) and DDR2 (#PR7167A); purchased ThermoFisher PR7167A
T3 sequence (Q16832 563-849 limits assumed): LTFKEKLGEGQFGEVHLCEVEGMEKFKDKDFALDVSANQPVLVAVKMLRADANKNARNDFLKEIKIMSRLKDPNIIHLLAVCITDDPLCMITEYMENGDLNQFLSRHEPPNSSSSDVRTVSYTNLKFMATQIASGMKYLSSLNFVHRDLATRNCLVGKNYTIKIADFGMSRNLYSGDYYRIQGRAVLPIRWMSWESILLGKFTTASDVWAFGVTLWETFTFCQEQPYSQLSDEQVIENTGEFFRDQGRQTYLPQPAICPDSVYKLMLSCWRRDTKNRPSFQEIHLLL
Description: as §1

T2 sequence (Q08345 610-905 limits assumed): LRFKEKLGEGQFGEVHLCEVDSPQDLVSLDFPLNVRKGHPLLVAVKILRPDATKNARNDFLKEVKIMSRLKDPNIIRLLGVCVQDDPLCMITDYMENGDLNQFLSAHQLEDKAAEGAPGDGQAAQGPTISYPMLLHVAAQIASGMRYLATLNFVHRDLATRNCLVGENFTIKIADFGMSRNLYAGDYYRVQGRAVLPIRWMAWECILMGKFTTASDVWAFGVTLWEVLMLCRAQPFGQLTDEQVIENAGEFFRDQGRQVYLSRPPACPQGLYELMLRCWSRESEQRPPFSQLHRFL

In the case of `O=c1ccnc2sc(-c3ccnc(Nc4cccc(N5CCN(CCO)CC5)c4)n3)c(-c3cccc(Cl)c3)n12` [Compound 41, 3-(3-Chloro-phenyl)-2-(2-{3-[4-(2-hydroxy-ethyl)-piperazin-1-yl]-phenylamino}-pyrimidin-4-yl)-thiazolo[3,2-a]pyrimidin-5-one], the EC50 [1] is reported as 40.4 nM, the IC50 [2] is reported as 6.24 nM and the IC50 [3] is reported as 36.9 nM.
`COc1cccc(-c2c(-c3ccnc(Nc4cccc(S(N)(=O)=O)c4)n3)sc3nccc(=O)n23)c1` [Compound 49, 3-{4-[3-(3-Methoxy-phenyl)-5-oxo-5H-thiazolo[3,2-a]pyrimidin-2-yl]-pyrimidin-2-ylamino}-benzenesulfonamide] showed an EC50 [1] of 99.8 nM, an IC50 [2] of 20.9 nM and an IC50 [3] of 103 nM.
In the case of `O=c1ccnc2sc(-c3ccnc(Nc4cccc(N5CCN(CCO)CC5)c4)n3)c(C3CCOCC3)n12` [Compound 66, 2-(2-{3-[4-(2-Hydroxy-ethyl)-piperazin-1-yl]-phenylamino}-pyrimidin-4-yl)-3-(tetrahydropyran-4-yl)-thiazolo[3,2-a]pyrimidin-5-one], the EC50 [1] is reported as 610 nM, the IC50 [2] is reported as 321 nM and the IC50 [3] is reported as 1480 nM.
Work on `NS(=O)(=O)c1cccc(Nc2nccc(-c3sc4nccc(=O)n4c3-c3ccccc3)n2)c1` [Compound 30, 3-[4-(5-Oxo-3-phenyl-5H-thiazolo[3,2-a]pyrimidin-2-yl)-pyrimidin-2-ylamino]-benzenesulfonamide] yielded an EC50 [1] of 87.4 nM, an IC50 [2] of 13.9 nM and an IC50 [3] of 50 nM.
With `COc1ccc(-c2c(-c3ccnc(Nc4ccc(N5CCN(C)CC5)cc4)n3)sc3nccc(=O)n23)cc1` [Compound 54, 3-(4-Methoxy-phenyl)-2-{2-[4-(4-methyl-piperazin-1-yl)-phenylamino]-pyrimidin-4-yl}-thiazolo[3,2-a]pyrimidin-5-one] the EC50 [1] was 18.2 nM, the IC50 [2] was 4.19 nM and the IC50 [3] was 28.8 nM.
`COc1ccccc1-c1c(-c2ccnc(Nc3cccc(N4CCN(CCO)CC4)c3)n2)sc2nccc(=O)n12` [Compound 47, 2-(2-{3-[4-(2-Hydroxy-ethyl)-piperazin-1-yl]-phenylamino}-pyrimidin-4-yl)-3-(2-methoxy-phenyl)-thiazolo[3,2-a]pyrimidin-5-one] showed an EC50 [1] of 27.8 nM, an IC50 [2] of 9.5 nM and an IC50 [3] of 24.4 nM.
With `CN1CCN(c2ccc(Nc3nccc(-c4sc5nccc(=O)n5c4-c4cccc(O)c4)n3)cc2)CC1` [Compound 56, 3-(3-Hydroxy-phenyl)-2-{2-[4-(4-methyl-piperazin-1-yl)-phenylamino]-pyrimidin-4-yl}-thiazolo[3,2-a]pyrimidin-5-one] the EC50 [1] was 12.2 nM, the IC50 [2] was 5.63 nM and the IC50 [3] was 17.5 nM.
For `COc1cccc(-c2c(-c3ccnc(Nc4ccc(N5CCN(C)CC5)cc4)n3)sc3nccc(=O)n23)c1` [Compound 51, 3-(3-Methoxy-phenyl)-2-{2-[4-(4-methyl-piperazin-1-yl)-phenylamino]-pyrimidin-4-yl}-thiazolo[3,2-a]pyrimidin-5-one], the EC50 [1] was 19.2 nM, the IC50 [2] was 8.34 nM and the IC50 [3] was 27.7 nM.
For `COc1cnc(Nc2cccc(S(N)(=O)=O)c2)nc1-c1sc2nccc(=O)n2c1-c1ccccc1` [Compound 69, 3-[5-Methoxy-4-(5-oxo-3-phenyl-5H-thiazolo[3,2-a]pyrimidin-2-yl)-pyrimidin-2-ylamino]-benzenesulfonamide], the IC50 [2] was 6880 nM and the IC50 [3] was 8620 nM.
Compound `COc1ccc(-c2c(-c3ccnc(Nc4cccc(S(N)(=O)=O)c4)n3)sc3nccc(=O)n23)cc1` [Compound 52, 3-{4-[3-(4-Methoxy-phenyl)-5-oxo-5H-thiazolo[3,2-a]pyrimidin-2-yl]-pyrimidin-2-ylamino}-benzenesulfonamide] has an EC50 [1] of 112 nM, an IC50 [2] of 10.9 nM and an IC50 [3] of 40.6 nM.
With `COc1ccccc1-c1c(-c2ccnc(Nc3ccc(N4CCN(C)CC4)cc3)n2)sc2nccc(=O)n12` [Compound 48, 3-(2-Methoxy-phenyl)-2-{2-[4-(4-methyl-piperazin-1-yl)-phenylamino]-pyrimidin-4-yl}-thiazolo[3,2-a]pyrimidin-5-one] the EC50 [1] was 27.5 nM, the IC50 [2] was 19.3 nM and the IC50 [3] was 71.2 nM.
For `COc1ccc(-c2c(-c3ccnc(Nc4cccc(N5CCN(CCO)CC5)c4)n3)sc3nccc(=O)n23)cc1Cl` [Compound 62, 3-(3-Chloro-4-methoxy-phenyl)-2-(2-{3-[4-(2-hydroxy-ethyl)-piperazin-1-yl]-phenylamino}-pyrimidin-4-yl)-thiazolo[3,2-a]pyrimidin-5-one], the EC50 [1] was 82.7 nM, the IC50 [2] was 10.9 nM and the IC50 [3] was 54 nM.
Compound `NS(=O)(=O)c1cccc(Nc2nccc(-c3sc4nccc(=O)n4c3-c3ccccc3Cl)n2)c1` [Compound 37, 3-{4-[3-(2-Chloro-phenyl)-5-oxo-5H-thiazolo[3,2-a]pyrimidin-2-yl]-pyrimidin-2-ylamino}-benzenesulfonamide] has an EC50 [1] of 36 nM, an IC50 [2] of 5.19 nM and an IC50 [3] of 24.2 nM.
In the case of `Cc1nc2sc(-c3ccnc(Nc4cccc(N5CCN(CCO)CC5)c4)n3)c(-c3ccccc3)n2c(=O)c1C(C)C` [Compound 76, 2-(2-{3-[4-(2-Hydroxy-ethyl)-piperazin-1-yl]-phenylamino}-pyrimidin-4-yl)-6-isopropyl-7-methyl-3-phenyl-thiazolo[3,2-a]pyrimidin-5-one], the IC50 [2] is reported as 64.4 nM and the IC50 [3] is reported as 292 nM.
`CC(C)c1cc(=O)n2c(-c3ccccc3)c(-c3ccnc(Nc4cccc(N5CCN(CCO)CC5)c4)n3)sc2n1` [Compound 73, 2-(2-{3-[4-(2-Hydroxy-ethyl)-piperazin-1-yl]-phenylamino}-pyrimidin-4-yl)-7-isopropyl-3-phenyl-thiazolo[3,2-a]pyrimidin-5-one] gave an IC50 [2] of 12.5 nM and an IC50 [3] of 33.3 nM.
